Laboratory results reported in patent publication US4338320A, “Esters of 6'-hydroxycinchonine, and a method of treating arrythmia with them” (The Board of Regents of the University of Nebraska, priority 1978, dated 1982).
Entries after “also recorded” stand apart in the source; their conditions may differ. Where two headings read alike, the source gives them in different places.

Tests used:
Assay type in all cases: in vivo
[1] = test system: mice; assay: Aconitine-induced arrhythmia in mice
From the text: Aconitine was used to induce arrhythmia and a saline solution served as the control for a third group.
A dosage in the same range as that previously set forth for cupreidine was utilized with mice for the compounds 6-benzylcinchonine and 6'-allylcinchonine. Aconitine was used to induce arrhythmia and a saline solution was used with the control group.

[2] = test system: mice; assay: Antiarrhythmic effective dose in mice (dose probit curve); conditions: for ED50: Mus musculus
Method: (§1) Mice were treated at varying dosage levels for both quinidine and cupreidine. A dose probit curve was generated for the effective dose and lethal dose of each compound. The respective ED50 and LD50 values were derived from those curves using techniques well known to those skilled in the art.

[3] = Lethal dose in mice (dose probit curve); conditions: mouse, in vivo; mice; from dose probit curve
Method: as §1

[4] = test system: mice; assay: Lethal dose in mice (dose probit curve); conditions: result in words
Method: as §1

[5] = Table III, dosage in the same range as for cupreidine, saline control 160. ± 5
[6] = Table III, dosage in the same range as for cupreidine, saline control 186. ± 6
[7] = Table II, intraperitoneal, cupreidine about 20.6 to about 26.8 mg/kg, quinidine 19.5-25.8 mg/kg, saline control 193. ± 11

SMILES	Onset of Arrhythmia (time in seconds) [1, 5] [seconds]	Onset of Ventricular Tachycardia (time in seconds) [1, 6] [seconds]	ED50 [2] [mg/kg]	effectiveness as an antiarrhythmic agent, relative to quinidine ([2]; result in words)	LD50 [3] [mg/kg]	toxicity relative to quinidine [4]	Onset of Arrhythmia (time in seconds) ([1]; Table II, intraperitoneal, cupreidine about 20.6 to about 26.8 mg/kg, quinidine 19.5-25.8 mg/kg, saline control 153. ± 5) [seconds]	Onset of Ventricular Tachycardia (time in seconds) [1, 7] [seconds]	ED50 ([2]; mice, from dose probit curve, read-out: ED50) [mg/kg]
C=CCOc1ccc2nccc([C@H](O)[C@H]3C[C@@H]4CCN3C[C@@H]4C=C)c2c1 [6'-Allylcinchonine, 6'-Allyloxycinchonine]	215. ± 9	261. ± 11	–	–	–	–	–	–	–
C=C[C@H]1CN2CC[C@H]1C[C@@H]2[C@@H](O)c1ccnc2ccc(OCc3ccccc3)cc12 [6-Benzylcinchonine, 6'-Benzyloxycinchonine]	195. ± 8	217. ± 6	–	–	–	–	–	–	–
C=CC1CN2CCC1CC2C(O)c1ccnc2ccc(O)cc12 (stereo not shown) [Cupreidine, 6'-hydroxycinchonine]	–	–	23.5	equal or superior to quinidine; also recorded: comparable to that of quinidine	304	greatly reduced toxicity	198. ± 8	250. ± 22	–
C=C[C@H]1C[N@@]2CC[C@H]1C[C@@H]2[C@@H](O)c1ccnc2ccc(OC)cc12 [Quinidine, reference compound]	–	–	–	–	202	–	–	294. ± 44	22.4
